Laboratory results taken from patent US6569638B1, “Method for screening compounds for the treatment of neoplasia” (Cell Pathways, Inc, priority 2000, dated 2003).

Legend:
[1] = Safety evaluation in exisulind clinical trials; assay type: in vivo
Experimental: In these exisulind trials and several others involving the drug in other indications, safety was evaluated by monitoring adverse events (AEs), clinical laboratory tests (hematology, serum chemistry, and urinalysis), vital signs (blood pressure, pulse rate, respiratory rate, temperature, and weight), physical examination, and upper endoscopy.

[2] = test system: PKG in HCT116 colon cancer cells; assay: PKG assay of drug-treated cell lysates; assay type: cell-based, human; conditions: HCT116 cells (β-catenin mutation, no APC mutation)
From the text: To test the effect of cGMP-specific PDE inhibition on neoplasia containing the β-catenin mutation, HCT116 colon cancer cells were employed. HCT116 is known to contain the β-catenin mutation, but is known not to contain the APC mutation.
The same procedure is used to grow the HCT116 cells as is used in the SW480 procedure described above. In this experiment, only exisulind and controls were used.

[3] = test system: panel of cultured human cell lines; assay: Neutral red growth inhibition, panel of cultured human cell lines; assay type: cell-based; conditions: five days continuous treatment, read-out: GI50 calculated for all cell lines
Experimental: (§1) Compound B's activity is not confined to activity against colon cancer cell lines or animal models of colon cancer. It has a broad range of anti-neoplastic effects in various neoplastic cell lines. Various types of human cancer cell lines were propagated under sterile conditions in RPMI 1640 medium with 10% fetal bovine serum, 2 mM L-glutamine and sodium bicarbonate. To determine growth inhibitory effects of Compound B, cells were seeded in 96-well plates at a density of 1000 cells per well. Twenty-four hours after plating, the cells were dosed with various concentrations of the free base of Compound B solubilized in DMSO (final concentration 0.1%). The effect of the drug on tumor cell growth was determined using the neutral red cytotoxicity assay following five days of continuous treatment. Neutral red is a dye that is selectively taken up by viable cells by an ATP-dependent transport mechanism.

[4] = test system: SW-480 colon adenocarcinoma cells; assay: DNA fragmentation (Cell Death Detection ELISA); assay type: cell-based, human
Experimental: Samples are then analyzed.

[5] = test system: OVCAR; assay: Neutral red growth inhibition; assay type: cell-based, human; conditions: Ovary, HCl salt
Experimental: as §1

[6] = test system: CCRF-CEM; assay: Neutral red growth inhibition; assay type: cell-based, human; conditions: Leukemia, HCl salt
Experimental: as §1

[7] = test system: NCI-H82; assay: Neutral red growth inhibition; assay type: cell-based, human; conditions: NCI-H82, Lung, free base
Experimental: as §1

[8] = test system: UISO-BCA-1; assay: Neutral red growth inhibition; assay type: cell-based, human; conditions: UISO-BCA-1, Breast, free base
Experimental: as §1

[9] = test system: DU145; assay: Neutral red growth inhibition; assay type: cell-based, human; conditions: DU145, Prostate, free base
Experimental: as §1

[10] = test system: MDA-MB-435; assay: Neutral red growth inhibition; assay type: cell-based, human; conditions: MDA-MB-435, Breast, free base
Experimental: as §1

[11] = test system: HT-29; assay: Neutral red growth inhibition; assay type: cell-based, human; conditions: HT-29, Colon, free base
Experimental: as §1

[12] = test system: Colo 205; assay: Neutral red growth inhibition; assay type: cell-based, human; conditions: Colo 205, Colon, free base
Experimental: as §1

[13] = test system: PC-3; assay: Neutral red growth inhibition; assay type: cell-based, human; conditions: PC-3, Prostate, free base
Experimental: as §1

[14] = test system: NCI-H460; assay: Neutral red growth inhibition; assay type: cell-based, human; conditions: NCI-H460, Lung, free base
Experimental: as §1

[15] = test system: NCI-H322M; assay: Neutral red growth inhibition; assay type: cell-based, human; conditions: Lung, free base
Experimental: as §1

[16] = test system: MDA-MB-231; assay: Neutral red growth inhibition; assay type: cell-based, human; conditions: MDA-MB-231, Breast, free base
Experimental: as §1

[17] = test system: SW-620; assay: Neutral red growth inhibition; assay type: cell-based, human; conditions: SW-620, Colon, free base
Experimental: as §1

[18] = test system: HCT-15; assay: Neutral red growth inhibition; assay type: cell-based, human; conditions: HCT-15, Colon, free base
Experimental: as §1

[19] = test system: NCI-H23; assay: Neutral red growth inhibition; assay type: cell-based, human; conditions: NCI-H23, Lung, free base
Experimental: as §1

[20] = molecular target: T1, COX I (Ovis aries, UniProt P05979); assay: COX I inhibition; assay type: biochemical, ram; conditions: at 100 μM
T1 construct: COX-I purified from ram seminal vesicles; tissue Cayman Chemical; host or cells: ram seminal vesicles
T1 sequence (P05979 25-600): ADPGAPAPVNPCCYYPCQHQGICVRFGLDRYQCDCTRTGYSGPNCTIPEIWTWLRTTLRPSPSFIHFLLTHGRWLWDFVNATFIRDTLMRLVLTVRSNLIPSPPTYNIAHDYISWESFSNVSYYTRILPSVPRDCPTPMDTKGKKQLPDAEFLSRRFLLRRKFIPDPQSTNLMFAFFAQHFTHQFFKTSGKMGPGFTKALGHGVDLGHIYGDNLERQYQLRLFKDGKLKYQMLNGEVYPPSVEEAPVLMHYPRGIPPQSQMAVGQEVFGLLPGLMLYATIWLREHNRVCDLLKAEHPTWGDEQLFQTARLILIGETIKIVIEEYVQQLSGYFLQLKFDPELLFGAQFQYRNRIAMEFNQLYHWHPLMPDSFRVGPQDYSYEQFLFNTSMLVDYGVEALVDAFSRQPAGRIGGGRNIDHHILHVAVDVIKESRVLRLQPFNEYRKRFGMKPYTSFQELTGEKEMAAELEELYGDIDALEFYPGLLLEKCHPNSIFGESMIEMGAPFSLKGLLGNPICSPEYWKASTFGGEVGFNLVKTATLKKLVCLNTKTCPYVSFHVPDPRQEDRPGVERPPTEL

CC1=C(CC(=O)O)c2cc(F)ccc2/C1=C\c1ccc(S(C)(=O)=O)cc1 [exisulind, 5-fluoro-2-methyl-1-(p-methylsulfonylbenzylidene)-3-indenylacetic acid]
safety findings in clinical trials ([1]; human, in vivo): No outstanding safety issues have been demonstrated
maximum tolerated dose (MTD) ([1]; patients with intact colons): 400 mg
maximum tolerated dose (MTD) ([1]; patients with subtotal colectomy): 600 mg
maximum tolerated dose (MTD) ([1]; pediatric patients): 350 mg
PKG activity relative to control [2]: phosphorylated to a greater extent than the corresponding controls

CC1=C(CC(=O)NCc2ccccc2)c2cc(F)ccc2/C1=C\c1ccncc1.Cl [Compound B, (Z)-5-fluoro-2-methyl-(4-pyridylidene)-3-(N-benzyl)indenylacetamide hydrochloride]
GI50 [3]: 1000 to 2000 nM
EC50 [4]: 15000 nM
GI50 [5]: 1200 nM
GI50 [6]: 1400 nM
GI50 [7]: 1700 nM
GI90 [7]: 5800 nM
GI50 [8]: 1500 nM
GI90 [8]: 4700 nM
GI50 [9]: 1600 nM
GI90 [9]: 2800 nM
GI50 [10]: 1600 nM
GI90 [10]: 2300 nM
GI50 [11]: 2100 nM
GI90 [11]: 8000 nM
GI50 [12]: 1600 nM
GI90 [12]: 2400 nM
GI50 [13]: 1700 nM
GI90 [13]: 82500 nM
GI50 [14]: 1900 nM
GI90 [14]: 30000 nM
GI50 [15]: 2100 nM
GI90 [15]: 13200 nM
GI50 [16]: 1800 nM
GI90 [16]: 77600 nM
GI50 [17]: 1700 nM
GI90 [17]: 2500 nM
GI50 [18]: 1700 nM
GI90 [18]: 3000 nM
GI50 [19]: 1700 nM
GI90 [19]: 2500 nM
COX I inhibition [20]: less than 25%
